Test system: MV-411 cells
Test: Anti-proliferative activity against MV-411 leukemia cells (CellTiterGlo viability, 72 h)
Format: cell-based
Settings: Homo sapiens, MV4-11, 72 h, MV-411 human acute monocytic leukemia cells, a second value in parentheses is a further determination
Procedure: Procedure: MV-411 cells were seeded into 384 well plates at 2000 cells/well density in 50 μL total volume, according to plate map and were allowed to naturally sediment by waiting about 30 min on a Clean Bench. Next, plated cells were centrifuged for 1 min at 1000 rpm and the excess cells were transferred into the flasks for further culture. Cells in the assay plates were incubated (at least 4 hrs.) at 37° C., 5% CO2 followed by adding the compounds as the plate map indicated. The tests were performed in duplicates with treatment of compounds at 10 pts 3-fold titration in 384 well plates. Taxol was used as positive control while DMSO as negative control. To rule out edge effect, the wells on the edge were not seeded and therefore one 384 well plate holds 13 compounds. Cells viability was measured 72h after incubation with compounds using CellTiterGlo (promega) viability assay according to manufacturer's instruction to check the ATP production in each well.
Experiments on anti-proliferative activity against leukemia cells were conducted with some of the compounds of the invention.

Row | Compound | GI50 [µM]
1 | COc1cnc(C(=O)Nc2cc(-n3cc(C(=O)NCCCN4CCOCC4)nn3)ccc2N2CCN(C)CC2)c(OC)n1 [Compound 36] | 28.2
2 | CN1CCN(c2ccc(-n3cc(C(=O)NCCCN4CCOCC4)nn3)cc2NC(=O)c2ccc(Cl)cc2C(F)(F)F)CC1 [Compound 46] | 22.4
3 | CN1CCN(c2ccc(-n3cc(C(=O)NCCCN4CCOCC4)nn3)cc2NC(=O)c2cnc(C#N)cc2N(C)C)CC1 [Compound 23] | 196
4 | C[C@@H]1CN(c2ccc(-n3cc(C(=O)NCCCN4CCOCC4)nn3)cc2NC(=O)c2cnc(Cl)cc2C(F)(F)F)C[C@H](C)N1C [Compound 1] | 1.38
5 | CN1CCN(c2ccc(-n3cc(C(=O)NCCCN4CCOCC4)nn3)cc2NC(=O)c2cnc(N)cc2C(F)(F)F)CC1 [Compound 18] | 42.7
6 | Cc1c(Cl)ncc(C(=O)Nc2cc(-n3cc(C(=O)NCCCN4CCOCC4)nn3)ccc2N2CCN(C)CC2)c1Cl [Compound 21] | 2.5
7 | C[C@H]1CN(c2ccc(-n3cc(C(=O)NCCCN4CCOCC4)nn3)cc2NC(=O)c2c[nH]c(=O)cc2C(F)(F)F)CCN1C [Compound 10] | > 200
8 | CN1CCN(c2ccc(-n3cc(C(=O)NCCCN4CCOCC4)nn3)cc2NC(=O)c2cnc(C(F)F)cc2Cl)CC1 [Compound 22] | 39.7

Same assay, conditions: MV-411 human acute monocytic leukemia cells, a second value in parentheses is a further determination

Row | Compound | GI50 [µM]
9 | Cc1c(Cl)ncc(C(=O)Nc2cc(-n3cc(C(=O)NCCCN4CCOCC4)nn3)ccc2N2CCN(C)CC2)c1Cl [Compound 21] | 2.33

Target: MLL1-WDR5 protein-protein interaction (Homo sapiens (Human), UniProt P61964)
Test: WDR5 TR-FRET assay (MLL1-WDR5 PPI inhibition)
Format: binding
Settings: 5 nM WDR5 protein, 10 nM peptide, read-out: IC50 (nM), MLL1-WDR5 PPI inhibitory activity
Procedure: WDR5 TR-FRET Assay Procedure: Stock compounds were transferred to the assay plate by Echo Liquid Handler. […] Stock compounds were incubated with WDR5 protein for 30 min at room temperature. Plates were covered, protected from light and incubated for 60 min at room temperature, after adding the peptide and Tb-Ab. EnVision Multimode Plate Reader (PerkinElmer) was used for the TR-FRET assay with excitation wavelength at 340 nm and emission wavelength at 495 and 520 nm. The ratio of the 520/495 wavelengths were used to assess the degree of the FRET signal. IC50 was calculated by fitting the inhibition data using XLfit software to sigmoidal dose-response model.

Row | Compound | IC50 [nM]
10 | COc1cc(C(F)(F)F)c(C(=O)Nc2cc(-n3cc(C(=O)NCCCN4CCOCC4)nn3)ccc2N2CCN(C)CC2)cn1 [Example 16, 6-methoxy-N-(2-(4-methylpiperazin-1-yl)-5-(4-((3-morpholinopropyl)carbamoyl)-1H-1,2,3-triazol-1-yl)phenyl)-4-(trifluoromethyl)nicotinamide] | > 10000
11 | C[C@@H]1CN(c2ccc(-n3cc(C(=O)NCCCN4CCOCC4)nn3)cc2NC(=O)c2c[nH]c(=O)cc2C(F)(F)F)C[C@H](C)N1C [Example 2, N-(5-(4-((3-morpholinopropyl)carbamoyl)-1H-1,2,3-triazol-1-yl)-2-((3S,5R)-3,4,5-trimethylpiperazin-1-yl)phenyl)-6-oxo-4-(trifluoromethyl)-1,6-dihydropyridine-3-carboxamide] | 16.7
12 | C[C@H]1CN(c2cc(F)c(-n3cc(C(=O)N4CCN(C)CC4)nn3)cc2NC(=O)c2cnc(Cl)cc2C(F)(F)F)C[C@H](C)N1C [HYBI-284] | 1270
13 | CSc1ccc(C(=O)Nc2cc(-n3cc(C(=O)NCCCN4CCOCC4)nn3)ccc2N2CCN(C)CC2)c(C(F)(F)F)n1 [Example 43, N-(2-(4-methylpiperazin-1-yl)-5-(4-((3-morpholinopropyl)carbamoyl)-1H-1,2,3-triazol-1-yl)phenyl)-6-(methylthio)-2-(trifluoromethyl)nicotinamide] | > 10000
14 | CN1CCN(c2ccc(-n3cc(C(=O)NCCCN4CCOCC4)nn3)cc2NC(=O)c2ccc(S(C)(=O)=O)nc2C(F)(F)F)CC1 [Example 44, N-[2-(4-methylpiperazin-1-yl)-5-[4-(3-morpholinopropylcarbamoyl)triazol-1-yl]phenyl]-6-methylsulfonyl-2-(trifluoromethyl)pyridine-3-carboxamide] | > 10000
15 | Cc1cc(Cl)c(C(=O)Nc2cc(-n3cc(C(=O)NCCCN4CCOCC4)nn3)ccc2N2CCN(C)CC2)cc1N [Example 49, 1-(3-(5-amino-2-chloro-4-methylbenzamido)-4-(4-methylpiperazin-1-yl)phenyl)-N-(3-morpholinopropyl)-1H-1,2,3-triazole-4-carboxamide] | 4370
16 | Cc1ncc(C(=O)Nc2cc(-n3cc(C(=O)NCCCN4CCOCC4)nn3)ccc2N2CCN(C)CC2)c(C(F)(F)F)n1 [Example 26, 2-methyl-N-(2-(4-methylpiperazin-1-yl)-5-(4-((3-morpholinopropyl)carbamoyl)-1H-1,2,3-triazol-1-yl)phenyl)-4-(trifluoromethyl)pyrimidine-5-carboxamide] | > 10000
17 | Cc1c(Cl)ncc(C(=O)Nc2cc(-n3cc(C(=O)NCCCN4CCOCC4)nn3)ccc2N2CCN(C)CC2)c1Cl [Example 21, 4,6-dichloro-5-methyl-N-(2-(4-methylpiperazin-1-yl)-5-(4-((3-morpholinopropyl)carbamoyl)-1H-1,2,3-triazol-1-yl)phenyl)nicotinamide] | 6570
18 | COc1cc(C(F)(F)F)c(C(=O)Nc2cc(-n3cc(C(=O)NCCCN4CCOCC4)nn3)c(F)cc2N2C[C@@H](C)N(C)[C@@H](C)C2)cn1 [Example 55] | 2820
19 | Cc1cc(N)ncc1C(=O)Nc1cc(-n2cc(C(=O)NCCCN3CCOCC3)nn2)ccc1N1CCN(C)CC1 [Example 24, 6-amino-4-methyl-N-(2-(4-methylpiperazin-1-yl)-5-(4-((3-morpholinopropyl)carbamoyl)-1H-1,2,3-triazol-1-yl)phenyl)nicotinamide] | > 10000
20 | C[C@@H]1CN(c2cc(F)c(-n3cc(C(=O)NCCCN4CCOCC4)nn3)cc2NC(=O)c2cnc(Cl)cc2C(F)(F)F)C[C@H](C)N1C [Example 5, 6-chloro-N-(4-fluoro-5-(4-((3-morpholinopropyl)carbamoyl)-1H-1,2,3-triazol-1-yl)-2-((3S,5R)-3,4,5-trimethylpiperazin-1-yl)phenyl)-4-(trifluoromethyl)nicotinamide] | 7270
21 | CN1CCN(c2ccc(-n3cc(C(=O)NCCCN4CCOCC4)nn3)cc2NC(=O)c2ccc(Cl)nc2C(F)(F)F)CC1 [Example 37, 6-chloro-N-(2-(4-methylpiperazin-1-yl)-5-(4-((3-morpholinopropyl)carbamoyl)-1H-1,2,3-triazol-1-yl)phenyl)-2-(trifluoromethyl)nicotinamide] | 1960
22 | CN1CCN(c2ccc(-n3cc(C(=O)NCCCN4CCOCC4)nn3)cc2NC(=O)c2cnc(Cl)cc2N(C)C)CC1 [Example 23, 6-chloro-4-(dimethylamino)-N-[2-(4-methylpiperazin-1-yl)-5-[4-(3-morpholinopropylcarbamoyl)triazol-1-yl]phenyl]pyridine-3-carboxamide] | > 10000
23 | COc1cc(C(F)(F)F)c(C(=O)Nc2cc(-n3cc(C(=O)NC4CCN(C)CC4)nn3)c(F)cc2N2C[C@@H](C)N(C)[C@@H](C)C2)cn1 [Example 54, N-(4-fluoro-5-(4-((1-methylpiperidin-4-yl)carbamoyl)-1H-1,2,3-triazol-1-yl)-2-((3S,5R)-3,4,5-trimethylpiperazin-1-yl)phenyl)-6-methoxy-4-(trifluoromethyl)nicotinamide] | 618
24 | CN1CCN(c2ccc(-n3cc(C(=O)NCCCN4CCOCC4)nn3)cc2NC(=O)c2cnc(N)cc2C(F)(F)F)CC1 [Example 18, 6-amino-N-(2-(4-methylpiperazin-1-yl)-5-(4-((3-morpholinopropyl)carbamoyl)-1H-1,2,3-triazol-1-yl)phenyl)-4-(trifluoromethyl)nicotinamide] | > 10000
25 | CN1CCN(c2ccc(-n3cc(C(=O)NCCCN4CCOCC4)nn3)cc2NC(=O)c2cnc([S+](C)[O-])nc2C(F)(F)F)CC1 (stereo not drawn) [Example 28, N-(2-(4-methylpiperazin-1-yl)-5-(4-((3-morpholinopropyl)carbamoyl)-1H-1,2,3-triazol-1-yl)phenyl)-2-(methylsulfinyl)-4-(trifluoromethyl)pyrimidine-5-carboxamide] | > 10000
26 | CSc1ncc(C(=O)Nc2cc(-n3cc(C(=O)NCCCN4CCOCC4)nn3)ccc2N2CCN(C)CC2)c(C(F)(F)F)n1 [Example 27, N-(2-(4-methylpiperazin-1-yl)-5-(4-((3-morpholinopropyl)carbamoyl)-1H-1,2,3-triazol-1-yl)phenyl)-2-(methylthio)-4-(trifluoromethyl)pyrimidine-5-carboxamide] | > 10000
27 | COc1cnc(C(=O)Nc2cc(-n3cc(C(=O)NCCCN4CCOCC4)nn3)ccc2N2CCN(C)CC2)c(Cl)n1 [Example 35, 3-chloro-5-methoxy-N-(2-(4-methylpiperazin-1-yl)-5-(4-((3-morpholinopropyl)carbamoyl)-1H-1,2,3-triazol-1-yl)phenyl)pyrazine-2-carboxamide] | > 10000
28 | CN1CCN(c2ccc(-n3cc(C(=O)NCCCN4CCOCC4)nn3)cc2NC(=O)c2cnc(Cl)cc2C(F)(F)F)CC1 [Example 3, 6-chloro-N-(2-(4-methylpiperazin-1-yl)-5-(4-((3-morpholinopropyl)carbamoyl)-1H-1,2,3-triazol-1-yl)phenyl)-4-(trifluoromethyl)nicotinamide] | > 10000
29 | CCN(CC)C(=O)c1cn(-c2cc(NC(=O)c3cnc(Cl)cc3Cl)c(N3C[C@@H](C)N(C)[C@@H](C)C3)cc2F)nn1 [Example 56, 4,6-dichloro-N-[5-[4-(diethylcarbamoyl)triazol-1-yl]-4-fluoro-2-[(3R,5S)-3,4,5-trimethylpiperazin-1-yl]phenyl]pyridine-3-carboxamide] | 1160
30 | CN1CCN(c2ccc(-n3cc(C(=O)NCCCN4CCOCC4)nn3)cc2NC(=O)c2nnc(Cl)cc2Cl)CC1 [Example 32, 4,6-dichloro-N-(2-(4-methylpiperazin-1-yl)-5-(4-((3-morpholinopropyl)carbamoyl)-1H-1,2,3-triazol-1-yl)phenyl)pyridazine-3-carboxamide] | > 10000
